Experimental data published in US7820623B2 (priority 2006, dated 2010).
Bridge positions count the residues as written; N and C are the ends. Square brackets hold non-standard residues; d marks the D form. Peptide text beside a SMILES is read from it. 1Nal = N[C@@H](Cc1cccc2ccccc12)C(=O)O

How the values were obtained:
[1] = tested on: thapsigargin-induced IFN-g production in human whole blood; assay type: cell-based; details: read-out: Analogue Activity (IC50) WB/IFNg
[2] = tested on: thapsigargin-induced IL-2 production in human whole blood; details: read-out: Analogue Activity (IC50) WB/IL-2

In the case of `CC[C@H](C)[C@@H]1NC(=O)[C@H](CCCCN)NC(=O)[C@@H](NC(=O)[C@H](CCCCN)NC(=O)[C@@H](NC(=O)[C@H](CC(N)=O)NC(=O)[C@@H](NC(=O)[C@@H](NC(=O)[C@@H](NC(=O)CN)C(C)C)[C@@H](C)CC)[C@@H](C)CC)C(C)C)CSSC[C@@H]2NC(=O)[C@H](CCCCN)NC(=O)CNC(=O)[C@H](Cc3ccccc3)NC(=O)[C@H](CCCNC(=N)N)NC(=O)[C@H](CCSC)NC(=O)CNC(=O)[C@H](C)NC(=O)[C@H](CCCCN)NC(=O)[C@H](CCCCN)NC(=O)[C@@H]3CSSC[C@@H](C(=O)N[C@H](C(=O)N4CCC[C@H]4C(=O)N[C@@H](CCCCN)C(=O)O)[C@@H](C)O)NC(=O)[C@H](Cc4c[nH]cn4)NC(=O)[C@H](CSSC[C@H](NC(=O)[C@H](CCC(N)=O)NC(=O)[C@H](CCCNC(=N)N)NC(=O)[C@H](CO)NC1=O)C(=O)N[C@@H](CC(C)C)C(=O)N[C@@H](CCC(=O)O)C(=O)N[C@@H](CCCNC(=N)N)C(=O)N3)NC(=O)[C@H](CCCCN)NC(=O)CNC(=O)[C@H](CC(N)=O)NC(=O)[C@H](CCSC)NC2=O` [P17R] (H-GVIINVKCKISRQCLERCKKAGMRFGKCMNGKCHCTPK-OH; disulfide 8-28, 14-33, 18-35), the IC50 [1] is reported as 0.355 nM and the IC50 [2] is reported as 0.202 nM.
`CC[C@H](C)[C@@H]1NC(=O)[C@H](CCCCN)NC(=O)[C@@H](NC(=O)[C@H](CCCCN)NC(=O)[C@@H](NC(=O)[C@H](CC(N)=O)NC(=O)[C@@H](NC(=O)[C@@H](NC(=O)[C@@H](NC(=O)CN)C(C)C)[C@@H](C)CC)[C@@H](C)CC)C(C)C)CSSC[C@@H]2NC(=O)[C@H](CCCCN)NC(=O)CNC(=O)[C@H](Cc3ccccc3)NC(=O)[C@H](CCCNC(=N)N)NC(=O)[C@H](CCSC)NC(=O)CNC(=O)[C@H](C)NC(=O)[C@H](CCCCN)NC(=O)[C@H](CCCCN)NC(=O)[C@@H]3CSSC[C@@H](C(=O)N[C@H](C(=O)N[C@@H](Cc4cccc5ccccc45)C(=O)N[C@@H](CCCCN)C(=O)O)[C@@H](C)O)NC(=O)[C@H](Cc4c[nH]cn4)NC(=O)[C@H](CSSC[C@H](NC(=O)[C@H](CCC(N)=O)NC(=O)[C@H](CCCNC(=N)N)NC(=O)[C@H](CO)NC1=O)C(=O)N[C@@H](CC(C)C)C(=O)N[C@@H](CCC(=O)O)C(=O)N1CCC[C@H]1C(=O)N3)NC(=O)[C@H](CCCCN)NC(=O)CNC(=O)[C@H](CC(N)=O)NC(=O)[C@H](CCSC)NC2=O` [P37Nal] (H-GVIINVKCKISRQCLEPCKKAGMRFGKCMNGKCHCT[1Nal]K-OH; disulfide 8-28, 14-33, 18-35) showed an IC50 [1] of 3.04 nM and an IC50 [2] of 1.76 nM.
For `CC[C@H](C)[C@@H]1NC(=O)[C@H](CCCCN)NC(=O)[C@@H](NC(=O)[C@H](CCCCN)NC(=O)[C@@H](NC(=O)[C@H](CC(N)=O)NC(=O)[C@@H](NC(=O)[C@@H](NC(=O)[C@@H](NC(=O)CN)C(C)C)[C@@H](C)CC)[C@@H](C)CC)C(C)C)CSSC[C@@H]2NC(=O)[C@H](CCCCN)NC(=O)CNC(=O)[C@H](Cc3ccccc3)NC(=O)[C@H](CCCNC(=N)N)NC(=O)[C@H](CCSC)NC(=O)CNC(=O)[C@H](C)NC(=O)[C@H](CCCCN)NC(=O)[C@H](CCCCN)NC(=O)[C@@H]3CSSC[C@@H](C(=O)N[C@H](C(=O)N[C@@H](CCCNC(=N)N)C(=O)N[C@@H](CCCCN)C(=O)O)[C@@H](C)O)NC(=O)[C@H](Cc4c[nH]cn4)NC(=O)[C@H](CSSC[C@H](NC(=O)[C@H](CCC(N)=O)NC(=O)[C@H](CCCNC(=N)N)NC(=O)[C@H](CO)NC1=O)C(=O)N[C@@H](CC(C)C)C(=O)N[C@@H](CCC(=O)O)C(=O)N1CCC[C@H]1C(=O)N3)NC(=O)[C@H](CCCCN)NC(=O)CNC(=O)[C@H](CC(N)=O)NC(=O)[C@H](CCSC)NC2=O` [P37R] (H-GVIINVKCKISRQCLEPCKKAGMRFGKCMNGKCHCTRK-OH; disulfide 8-28, 14-33, 18-35), the IC50 [1] was 0.253 nM and the IC50 [2] was 0.229 nM.
With `CC[C@H](C)[C@@H]1NC(=O)[C@H](CCCCN)NC(=O)[C@@H](NC(=O)[C@H](CCCCN)NC(=O)[C@@H](NC(=O)[C@H](CC(N)=O)NC(=O)[C@@H](NC(=O)[C@@H](NC(=O)[C@@H](NC(=O)CN)C(C)C)[C@@H](C)CC)[C@@H](C)CC)C(C)C)CSSC[C@@H]2NC(=O)[C@H](CCCCN)NC(=O)CNC(=O)[C@H](Cc3ccccc3)NC(=O)[C@H](CCCNC(=N)N)NC(=O)[C@H](CCSC)NC(=O)CNC(=O)[C@H](C)NC(=O)[C@H](CCCCN)NC(=O)[C@H](CCCCN)NC(=O)[C@@H]3CSSC[C@@H](C(=O)N[C@H](C(=O)N4CCC[C@H]4C(=O)N[C@@H](CCCCN)C(=O)O)[C@@H](C)O)NC(=O)[C@H](Cc4c[nH]cn4)NC(=O)[C@H](CSSC[C@H](NC(=O)[C@H](C)NC(=O)[C@H](CCCNC(=N)N)NC(=O)[C@H](CO)NC1=O)C(=O)N[C@@H](CC(C)C)C(=O)N[C@@H](CCC(=O)O)C(=O)N1CCC[C@H]1C(=O)N3)NC(=O)[C@H](CCCCN)NC(=O)CNC(=O)[C@H](CC(N)=O)NC(=O)[C@H](CCSC)NC2=O` [Q13A] (H-GVIINVKCKISRACLEPCKKAGMRFGKCMNGKCHCTPK-OH; disulfide 8-28, 14-33, 18-35) the IC50 [1] was 0.133 nM and the IC50 [2] was 0.148 nM.
In the case of `CC[C@H](C)[C@@H]1NC(=O)[C@H](CCCCN)NC(=O)[C@@H](NC(=O)[C@H](CCCCN)NC(=O)[C@@H](NC(=O)[C@H](CC(N)=O)NC(=O)[C@@H](NC(=O)[C@@H](NC(=O)[C@@H](NC(=O)CN)C(C)C)[C@@H](C)CC)[C@@H](C)CC)C(C)C)CSSC[C@@H]2NC(=O)[C@H](CCCCN)NC(=O)CNC(=O)[C@H](Cc3ccccc3)NC(=O)[C@H](CCCNC(=N)N)NC(=O)[C@H](CCSC)NC(=O)CNC(=O)[C@H](C)NC(=O)[C@H](CCCCN)NC(=O)[C@H](CCCCN)NC(=O)[C@@H]3CSSC[C@@H](C(=O)N[C@H](C(=O)N4CCC[C@H]4C(=O)N[C@@H](CCCCN)C(=O)O)[C@@H](C)O)NC(=O)[C@H](Cc4c[nH]cn4)NC(=O)[C@H](CSSC[C@H](NC(=O)[C@H](CCC(=O)O)NC(=O)[C@H](CCCNC(=N)N)NC(=O)[C@H](CO)NC1=O)C(=O)N[C@@H](CC(C)C)C(=O)N[C@@H](CCC(=O)O)C(=O)N1CCC[C@H]1C(=O)N3)NC(=O)[C@H](CCCCN)NC(=O)CNC(=O)[C@H](CC(N)=O)NC(=O)[C@H](CCSC)NC2=O` [Q13E] (H-GVIINVKCKISRECLEPCKKAGMRFGKCMNGKCHCTPK-OH; disulfide 8-28, 14-33, 18-35), the IC50 [1] is reported as 0.799 nM and the IC50 [2] is reported as 1.06 nM.
`CC[C@H](C)[C@@H]1NC(=O)[C@H](CCCCN)NC(=O)[C@@H](NC(=O)[C@H](CCCCN)NC(=O)[C@@H](NC(=O)[C@H](CC(N)=O)NC(=O)[C@@H](NC(=O)[C@@H](NC(=O)[C@@H](NC(=O)CN)C(C)C)[C@@H](C)CC)[C@@H](C)CC)C(C)C)CSSC[C@@H]2NC(=O)[C@H](CCCCN)NC(=O)CNC(=O)[C@H](Cc3ccccc3)NC(=O)[C@H](CCCNC(=N)N)NC(=O)[C@H](CCSC)NC(=O)CNC(=O)[C@H](C)NC(=O)[C@H](CCCCN)NC(=O)[C@H](CCCCN)NC(=O)[C@@H]3CSSC[C@@H](C(=O)N[C@H](C(=O)N4CCC[C@H]4C(=O)N[C@@H](CCCCN)C(=O)O)[C@@H](C)O)NC(=O)[C@H](Cc4c[nH]cn4)NC(=O)[C@H](CSSC[C@H](NC(=O)[C@H](CCCNC(=N)N)NC(=O)[C@H](CCCNC(=N)N)NC(=O)[C@H](CO)NC1=O)C(=O)N[C@@H](CC(C)C)C(=O)N[C@@H](CCC(=O)O)C(=O)N1CCC[C@H]1C(=O)N3)NC(=O)[C@H](CCCCN)NC(=O)CNC(=O)[C@H](CC(N)=O)NC(=O)[C@H](CCSC)NC2=O` [Q13R] (H-GVIINVKCKISRRCLEPCKKAGMRFGKCMNGKCHCTPK-OH; disulfide 8-28, 14-33, 18-35) was tested, and the IC50 [1] was 0.172 nM and the IC50 [2] was 0.16 nM.
In the case of `CC[C@H](C)[C@@H]1NC(=O)[C@H](CCCCN)NC(=O)[C@@H](NC(=O)[C@H](CCCCN)NC(=O)[C@@H](NC(=O)[C@H](CC(N)=O)NC(=O)[C@@H](NC(=O)[C@@H](NC(=O)[C@@H](NC(=O)CN)C(C)C)[C@@H](C)CC)[C@@H](C)CC)C(C)C)CSSC[C@@H]2NC(=O)[C@H](CCCCN)NC(=O)CNC(=O)[C@H](Cc3ccccc3)NC(=O)[C@H](CCCNC(=N)N)NC(=O)[C@H](CCSC)NC(=O)CNC(=O)[C@H](C)NC(=O)[C@H](CCCCN)NC(=O)[C@H](CCCCN)NC(=O)[C@@H]3CSSC[C@@H](C(=O)N[C@H](C(=O)N4CCC[C@H]4C(=O)N[C@@H](CCCCN)C(=O)O)[C@@H](C)O)NC(=O)[C@H](Cc4c[nH]cn4)NC(=O)[C@H](CSSC[C@H](NC(=O)[C@H](CCC(N)=O)NC(=O)[C@H](CCC(=O)O)NC(=O)[C@H](CO)NC1=O)C(=O)N[C@@H](CC(C)C)C(=O)N[C@@H](CCC(=O)O)C(=O)N1CCC[C@H]1C(=O)N3)NC(=O)[C@H](CCCCN)NC(=O)CNC(=O)[C@H](CC(N)=O)NC(=O)[C@H](CCSC)NC2=O` [R12E] (H-GVIINVKCKISEQCLEPCKKAGMRFGKCMNGKCHCTPK-OH; disulfide 8-28, 14-33, 18-35), the IC50 [1] is reported as 2 nM and the IC50 [2] is reported as 1.79 nM.
With `CC[C@H](C)[C@@H]1NC(=O)[C@H](CCCCN)NC(=O)[C@@H](NC(=O)[C@H](CCCCN)NC(=O)[C@@H](NC(=O)[C@H](CC(N)=O)NC(=O)[C@@H](NC(=O)[C@@H](NC(=O)[C@@H](NC(=O)CN)C(C)C)[C@@H](C)CC)[C@@H](C)CC)C(C)C)CSSC[C@@H]2NC(=O)[C@H](CCCCN)NC(=O)CNC(=O)[C@H](Cc3ccccc3)NC(=O)[C@H](Cc3cccc4ccccc34)NC(=O)[C@H](CCSC)NC(=O)CNC(=O)[C@H](C)NC(=O)[C@H](CCCCN)NC(=O)[C@H](CCCCN)NC(=O)[C@@H]3CSSC[C@@H](C(=O)N[C@H](C(=O)N4CCC[C@H]4C(=O)N[C@@H](CCCCN)C(=O)O)[C@@H](C)O)NC(=O)[C@H](Cc4c[nH]cn4)NC(=O)[C@H](CSSC[C@H](NC(=O)[C@H](CCC(N)=O)NC(=O)[C@H](CCCNC(=N)N)NC(=O)[C@H](CO)NC1=O)C(=O)N[C@@H](CC(C)C)C(=O)N[C@@H](CCC(=O)O)C(=O)N1CCC[C@H]1C(=O)N3)NC(=O)[C@H](CCCCN)NC(=O)CNC(=O)[C@H](CC(N)=O)NC(=O)[C@H](CCSC)NC2=O` [R24Nal] (H-GVIINVKCKISRQCLEPCKKAGM[1Nal]FGKCMNGKCHCTPK-OH; disulfide 8-28, 14-33, 18-35) the IC50 [1] was 0.818 nM and the IC50 [2] was 0.293 nM.
